# Assay results from patent US20040097543A1, “Use of cyclic 2,4-diphosphoclycerates (cdgp) and/or derivatives thereof in cosmetic and dermatological formulations” (priority 2000, published 2004).
# What was measured:
# Half-life (hydrolysis) = format: physicochemical; conditions: T = 120° C.
# LDH = test: Stabilization when freezing protein solutions (LDH); format: biochemical
# enzymes = test: Protection against thermally induced denaturation of enzymes; format: biochemical; conditions: in comparison with a number of other compatible solutes far and decidedly better
# Solubility in water = format: physicochemical
# [1] = Stability properties (chemical, physical, pH, light); format: physicochemical
smiles,measurement,setting,value
"O=C(O)[C@H]1COP(=O)(O)OP(=O)(O)O1 [Cyclic diphosphoglycerate, cyclic diphosphoglycerate]",half-life,Half-life (hydrolysis),150 h
same,stabilizing properties when freezing protein solutions (LDH),LDH,good stabilizing properties
same,protective effect in respect of the thermally induced denaturation of enzymes,enzymes,excellent
same,solubility in water,Solubility in water,Excellent
same,chemical and physical stability,[1],High
